For one experiment, the system named is THP-1 cells. The experiment can be described thus: TNFα generation assay. To be noted: Homo sapiens, THP-1, THP-1 cells; Table 22; read-out: IC50 in TNFα generation assay. It counts as cell-based, human. The method, boiled down:
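THP-1 cells differentiated to macrophage-like cells with 10 ng/ml IFN-γ for 2 days, preincubated with compound 30 min at room temperature, then cultured 7 h on plates coated with human IgG (10 μg/ml). Secreted TNFα measured by ELISA or AlphaLISA.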

The target in experiment [1] is T1, glutathione S-transferase (GST)-fused full-length human Syk protein (Homo sapiens, UniProt P43405).
T1 construct: (GST)-fused full-length human Syk protein; GST (glutathione S-transferase); purchased Carna Biosciences
The experiment can be described thus: Syk enzyme assay. It counts as biochemical. As to conditions: Syk enzyme assay, Test Example 1; read-out: IC50 of Syk-inhibitory activity. The gist of the method:
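IC50 values come from a time-resolved FRET readout (615 and 665 nm) of substrate phosphorylation, measured after an EDTA stop and 1 h antibody binding. The kinase reaction ran 40 min at room temperature with 27 μM ATP and 0.4 μM biotin-peptide, following a 15 min compound preincubation with baculovirus-made GST-full-length human Syk.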

SMILES strings stand for the structures.

With `Cc1ncc(Nc2nc(N[C@H](C3CC3)[C@H](C)N)c(F)cc2C(N)=O)cc1-n1nccn1` [Example 006-483, 6-(((1R,2S)-2-amino-1-cyclopropylpropyl)amino)-5-fluoro-2-((6-methyl-5-(2H-1,2,3-triazol-2-yl)pyridin-3-yl)amino)nicotinamide], the IC50 in the experiment on THP-1 cells is below 65 nM; in experiment [1], below 10 nM.

`COc1ncc(Nc2nc(N[C@@H]3CCCC[C@@H]3N)c(F)cc2C(N)=O)cc1F` [Example 006-484, 6-(((1R,2S)-2-aminocyclohexyl)amino)-5-fluoro-2-((5-fluoro-6-methoxypyridin-3-yl)amino)nicotinamide]: the IC50 in the experiment with THP-1 cells lay in the range of 65 to 130 nM; in experiment [1], 10 to 50 nM.

Take `Cc1nn(C)c2cc(Nc3nc(N[C@H](CC4CC4)[C@H](C)N)c(F)cc3C(N)=O)ccc12` [Example 006-485, 6-(((2R,3S)-3-amino-1-cyclopropylbutan-2-yl)amino)-2-((1,3-dimethyl-1H-indazol-6-yl)amino)-5-fluoronicotinamide]: the IC50 is 65 to 130 nM in the experiment with THP-1 cells and below 10 nM in experiment [1].

Take `CCn1nc(C)c2ccc(Nc3nc(N[C@H](CC4CC4)[C@H](C)N)c(F)cc3C(N)=O)cc21` [Example 006-486, 6-(((2R,3S)-3-amino-1-cyclopropylbutan-2-yl)amino)-2-((1-ethyl-3-methyl-1H-indazol-6-yl)amino)-5-fluoronicotinamide]: the IC50 was 130 to 200 nM with THP-1 cells and below 10 nM in experiment [1].

`COCCn1nc(C)c2ccc(Nc3nc(N[C@H](CC4CC4)[C@H](C)N)c(F)cc3C(N)=O)cc21` [Example 006-487, 6-(((2R,3S)-3-amino-1-cyclopropylbutan-2-yl)amino)-5-fluoro-2-((1-(2-methoxyethyl)-3-methyl-1H-indazol-6-yl)amino)nicotinamide]: the figures for the IC50 (with THP-1 cells; in experiment [1]) were 130 to 200 nM and below 10 nM, respectively.

Turning to `Cc1nn(CCF)c2cc(Nc3nc(N[C@H](CC4CC4)[C@H](C)N)c(F)cc3C(N)=O)ccc12` [Example 006-488, 6-(((2R,3S)-3-amino-1-cyclopropylbutan-2-yl)amino)-5-fluoro-2-((1-(2-fluoroethyl)-3-methyl-1H-indazol-6-yl)amino)nicotinamide], the IC50 was 65 to 130 nM in the experiment with THP-1 cells and below 10 nM in experiment [1].

Turning to `Cc1nn(CC(F)F)c2cc(Nc3nc(N[C@H](CC4CC4)[C@H](C)N)c(F)cc3C(N)=O)ccc12` [Example 006-489, 6-(((2R,3S)-3-amino-1-cyclopropylbutan-2-yl)amino)-2-((1-(2,2-difluoroethyl)-3-methyl-1H-indazol-6-yl)amino)-5-fluoronicotinamide], the IC50 in the experiment on THP-1 cells is 130 to 200 nM; in experiment [1], below 10 nM.

For the compound `COc1ncc(Nc2nc(N[C@@H]3CCCC[C@@H]3N)c(F)cc2C(N)=O)cc1-n1ccnn1` [Example 006-493, 6-(((1R,2S)-2-aminocyclohexyl)amino)-5-fluoro-2-((6-methoxy-5-(1H-1,2,3-triazol-1-yl)pyridin-3-yl)amino)nicotinamide], the IC50 with THP-1 cells was 130 to 200 nM; in experiment [1], 10 to 50 nM.

Consider `CCOc1ncc(Nc2nc(N[C@@H]3CCCC[C@@H]3N)c(F)cc2C(N)=O)cc1-n1cccn1` [Example 006-494, 6-(((1R,2S)-2-aminocyclohexyl)amino)-2-((6-ethoxy-5-(1H-pyrazol-1-yl)pyridin-3-yl)amino)-5-fluoronicotinamide], for which the figures for the IC50 (in the experiment with THP-1 cells; in experiment [1]) were 130 to 200 nM and 10 to 50 nM, respectively.

With `CCOc1ncc(Nc2nc(N[C@@H]3CCCC[C@@H]3N)c(F)cc2C(N)=O)cc1-n1nccn1` [Example 006-495, 6-(((1R,2S)-2-aminocyclohexyl)amino)-2-((6-ethoxy-5-(2H-1,2,3-triazol-2-yl)pyridin-3-yl)amino)-5-fluoronicotinamide], the IC50 in the experiment on THP-1 cells is 130 to 200 nM; in experiment [1], below 10 nM.

As to `CCOc1ncc(Nc2nc(N[C@@H]3CCCC[C@@H]3N)c(F)cc2C(N)=O)cc1-n1ccnn1` [Example 006-496, 6-(((1R,2S)-2-aminocyclohexyl)amino)-2-((6-ethoxy-5-(1H-1,2,3-triazol-1-yl)pyridin-3-yl)amino)-5-fluoronicotinamide], the IC50 in the experiment on THP-1 cells is 65 to 130 nM; in experiment [1], below 10 nM.

Values taken from patent publication US8895585B2, “Nicotinamide derivative or salt thereof” (FUJIFILM Corporation, priority 2010, dated 2014).
